From patent publication US20030096704A1, “Novel use of herbicides” (priority 2000, published 2003) come the findings set out here.

The structures appear in SMILES notation.

Test [1] relates to Cyperus serotinus (CYPSE). Put plainly: Post-emergence herbicidal action on rice (paddy system): weed control. The following applies: 8 g/ha; leaf stage 3, height 11 cm at application; about 21 days. It is filed as in vivo. How it is done: (§1) Post-emergence Herbicidal Action on Rice:
(§2) Weeds are sown and raised in soil saturated with water in plastics troughs. The rice plants are sown and grown separately from the weeds and after 10 days transplanted into the plastics troughs containing the weeds. The test compounds are then applied to the plants in the form of an aqueous suspension. One day after application, the water level is raised by 3 cm (paddy system).
(§3) The test plants are then grown on in a greenhouse under optimum conditions. […] For comparison with the prior art, the compound sulfometuron-methyl (known from The Pesticide Manual, 10th ed., the British Crop Protection Council, page 931) is tested. Sulfometuron-methyl belongs to the same class of ALS-inhibitors as the compound of formula I. The compound of formula I and sulfometuron-methyl are tested at a rate of application of 8 g/ha.

In test [2] the test system is Echinochloa crus galli (ECHCG). The description is as above. It is filed as in vivo. The following applies: 8 g/ha, about 21 days. How it is done: as §1, §2, §3
Test [3] relates to Monochoria vaginalis (MOOVA). The test is described as above. It counts as in vivo. The note with it: 8 g/ha; leaf stage 2, height 1 cm at application; about 21 days. On the procedure: as §1, §2, §3
Test [4] has as its system Rice ATCC 97523 (ALS-inhibitor-resistant rice variety SPCW-1). The experiment in a line: Post-emergence herbicidal action on rice (paddy system): phytotoxicity on ALS-inhibitor-resistant rice. It counts as in vivo, Oryza sativa. The following applies: 8 g/ha, evaluated after about 21 days, 0% no action, 100% plant completely died. On the procedure: as §1, §2, §3
The ALS-inhibitor-resistant rice variety used is Oryza sativa, Linnaeus name: SPCW-1, deposited under the number ATCC 97523, depositor: Louisiana State Univ.

The test system of test [5] is Rice “Lemont” (conventional rice variety). The experiment in a line: Post-emergence herbicidal action on rice (paddy system): phytotoxicity on conventional rice. It is filed as in vivo, Oryza sativa. The following applies: 8 g/ha, evaluated after about 21 days, 0% no action, 100% plant completely died. On the procedure: as §1, §2, §3
The variety “Lemont” is used as conventional rice variety.

Take `COC(=O)c1ccccc1S(=O)(=O)NC(=O)Nc1nc(C)cc(C)n1` [sulfometuron-methyl]: the “% Weed control CYPSE” value in test [1] was 95%. Besides, the “% Weed control ECHCG 1” value in test [2] (Echinochloa crus galli post 1.0 leaf (leaf stage 1.5, height 6 cm at application)) was determined as 100%. For the same compound, the “% Weed control ECHCG 3” value in test [2] (Echinochloa crus galli post 3.0 leaf (leaf stage 3, height 25 cm at application)) stood at 98%. The “% Weed control MOOVA” value in test [3] was determined as 100%. In test [4], the “% Phytotoxicity Rice ATCC 97523” value amounted to 95%. In addition, the “% Phytotoxicity Rice “Lemont”” value in test [5] is recorded as 100%.
